Test results published in patent EP4282435A1, “FORMULATIONS OF ACTIVE PHARMACEUTICAL INGREDIENTS AND EXCIPIENTS IN ICELLS VIA HYDROPHOBIC ION PAIRING” (Danmarks Tekniske Universitet, priority 2022, dated 2023).
Counter-ions that a name gives are not always drawn. Like-named read-outs stand apart in the source and are kept apart here.

What was measured:
[1] = Description: After removing the supernatant, the complex was dissolved in methanol, transferred to a new glass vial and the solvent was dried under a gentle nitrogen flow. […] ICell was proportionally added to a vial containing Abaloparatide in its native form to achieve a final Abaloparatide concentration of 1 mg/g. Abaloparatide-HIP complexes were pre-dissolved in DMSO (corresponding to 5% weight of the final formulation), followed by the proportional addition of ICell to obtain a final Abaloparatide concentration of 1 mg/g.
S. aureus strain S54F9 = assay: Microbiological assay, Disc Diffusion Assay; format: cell-based, Staphylococcus aureus; conditions: Example 24, wells: 0.5 mg linoleic acid in DMSO; 0.5 mg vancomycin hydrochloride; 45 µl HIP complex + 45 µl PBS; 24 hours at 37 °C
Description: Then, 3 wells were carved out with the use of the broad side of an autoclaved 1 ml pipette tip.
This setup was repeated for three experimental replicates. Each plate was incubated for 24 hours at 37 °C, before inspection.
Then, 3 wells were carved out with the use of the broad side of an autoclaved 1 ml pipette tip. In one well, 0.5 mg linoleic acid was injected as 90 µl 0.22 µm-sterile-filtered dimethyl sulfoxide. In a second well, 90 µl autoclaved phosphate-buffered saline with 0.5 mg vancomycin hydrochloride was injected. […] The plate was incubated for 24 hours at 37 °C, before inspection.

[2] = SuBen:GTH:DMSO (60:15:25) ICell, visual

solubility in ICell [1]	SMILES	antimicrobial activity (clearance of S. aureus) (S. aureus strain S54F9)	solubility in ICell [2]
insoluble	CC[C@H](C)[C@H](NC(=O)[C@H](CO)NC(=O)[C@H](CCCCN)NC(=O)CNC(=O)[C@H](CCCCN)NC(=O)[C@H](CC(=O)O)NC(=O)[C@H](Cc1cnc[nH]1)NC(=O)[C@H](CC(C)C)NC(=O)[C@H](CC(C)C)NC(=O)[C@H](CCC(N)=O)NC(=O)[C@H](Cc1cnc[nH]1)NC(=O)[C@H](CCC(=O)O)NC(=O)[C@H](CO)NC(=O)[C@@H](NC(=O)[C@H](C)N)C(C)C)C(=O)N[C@@H](CCC(N)=O)C(=O)N[C@@H](CC(=O)O)C(=O)N[C@@H](CC(C)C)C(=O)N[C@@H](CCCNC(=N)N)C(=O)N[C@@H](CCCNC(=N)N)C(=O)N[C@@H](CCCNC(=N)N)C(=O)N[C@@H](CCC(=O)O)C(=O)N[C@@H](CC(C)C)C(=O)N[C@@H](CC(C)C)C(=O)N[C@@H](CCC(=O)O)C(=O)N[C@@H](CCCCN)C(=O)N[C@@H](CC(C)C)C(=O)N[C@@H](CC(C)C)C(=O)NC(C)(C)C(=O)N[C@@H](CCCCN)C(=O)N[C@@H](CC(C)C)C(=O)N[C@@H](Cc1cnc[nH]1)C(=O)N[C@H](C(=O)N[C@@H](C)C(N)=O)[C@@H](C)O [Abaloparatide]	–	–
–	CN[C@H](CC(C)C)C(=O)N[C@H]1C(=O)N[C@@H](CC(N)=O)C(=O)N[C@H]2C(=O)N[C@H]3C(=O)N[C@H](C(=O)N[C@H](C(=O)O)c4cc(O)cc(O)c4-c4cc3ccc4O)[C@H](O)c3ccc(c(Cl)c3)Oc3cc2cc(c3O[C@@H]2O[C@H](CO)[C@@H](O)[C@H](O)[C@H]2O[C@H]2C[C@](C)(N)[C@H](O)[C@H](C)O2)Oc2ccc(cc2Cl)[C@H]1O [Vancomycin hydrochloride]	clearance of S. aureus bacteria	not dissolvable
